# Measurements reported in patent US9963496B2, “Stable glucagon analogues and use for treatment of hypoglycaemia” (Novo Nordisk A/S, priority 2014, dated 2018).
# *1 amine or outer side, *2 acyl side, *3 side chain or, on linkers, in order; H or OH if unused. Where a SMILES comes first, the peptide text is derived from it. Side-chain parts run from the residue outwards. [ ]: non-standard residue; d: D form. The star is where a group is joined. γGlu = O=C(O)[C@H](CCC(=O)[*:2])N[*:1]; Desaminohistidyl = O=C(CCc1c[nH]cn1)*; Aib = CC(C)(N)C(=O)O
# Legend:
# physchem = format: physicochemical; conditions: pH 7.5
# In short: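 Peptide at 250 μM in 10 mM HEPES pH 7.5 with 1 μM Thioflavin T, incubated at 37° C with 960 rpm orbital shaking. ThT fluorescence (ex 444/em 485 nm) read every 20 min; lag-time (t0−2τ) and kapp (1/τ) from curve fit. Recovery is post-assay supernatant peptide by RP-HPLC as % of initial.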
# human glucagon receptor = biological target: T1, human glucagon receptor (Homo sapiens, UniProt P47871); assay: Assay (I)(b): glucagon receptor activation, CRE luciferase reporter gene assay in BHK cells; format: cell-based; conditions: BHK cells expressing human glucagon receptor and CRE luciferase, 3 h incubation; read-out: EC50 hGlucagonR
# T1 construct: expressed in transfected cells; host or cells: BHK cells, clone BHK hGCGR A3*25; isolated membranes
# Method: The purpose of this assay is to test the activity, or potency, of the derivatives of the invention, in vitro. The in vitro potency is the measure of human GLP-1 receptor and/or glucagon receptor activation, respectively, in a whole cell assay.
# In vitro potency was determined by measuring the response of human GLP-1 or glucagon receptor, respectively, in a reporter gene assay. The assay was performed in a stably transfected BHK cell line that expressed either the human GLP-1 receptor or the human glucagon receptor and contained the DNA for the cAMP response element (CRE) coupled to a promoter and the gene for firefly luciferase (CRE luciferase). […] When assay incubation was completed, the luciferase substrate (luciferin) was added and the enzyme converted luciferin to oxyluciferin and produced bioluminescence. The luminescence was measured as the readout for the assay.
# (b) Glucagon Receptor Activation
# The cells used in this assay (clone pLJ6′-4-25) were BHK cells with BHK570 as a parent cell line expressing the CRE luciferase gene (clone BHK/KZ10-20-48) and were established by further transfection with the human glucagon receptor (clone pLJ6′ in pHZ-1 vector).
# The cells were cultured at 5% CO2 in DMEM medium with 10% FBS, 1× GlutaMAX, 1 mg/mL G418, 240 nM MTX (methotrexate) and 1% pen/strep (penicillin/streptomycin). They were aliquoted and stored in liquid nitrogen. Before each assay, an aliquot was taken up and washed three times in PBS before being suspended at the desired concentration in assay buffer. For 96-well plates the suspension was made to give a final concentration of 5×10 EE3 cells/well.
# Assay Medium consisted of DMEM w/o phenol red, 10 mM Hepes, lx GlutaMAX, 2% Ovalbumin and 0.2% Pluronic F-68.
# Cell stocks were thawed in a 37° C. water bath. Cells were washed three times in PBS. The cells were counted and adjusted to 5×10 EE3 cells/50 μl (1×10 EE5 cells/mL) in Assay Medium. A 50 μl aliquot of cells was transferred to each well in the assay plate.
# Stocks of the test compounds and reference compounds were diluted to a concentration of […] in Assay Medium. Compounds were diluted 10-fold to give the following concentrations: […], 2×10 EE-7 M, 2×10 EE-8 M; 2×10 EE-9 M, 2×10 EE-10 M, 2×10 EE-11 M, 2×10 EE-12 M and 2×10 EE-13 M. For each compound a blank assay buffer control was also included.
# A 50 μl aliquot of compound or blank was transferred from the dilution plate to the assay plate. Compounds were tested at the following final concentrations: 1×10 EE-6 M, 1×10 EE-7 M, 1×10 EE-8 M; 1×10 EE-9 M, 1×10 EE-10 M, 1×10 EE-11 M and 1×10 EE-12 M and 1×10 EE-13 M.
# The assay plate was incubated for 3 h in a 5% CO2 incubator at 37° C. The assay plate was removed from the incubator and allowed to stand at room temperature for 15 min. A 100 μl aliquot of steadylite plus reagent was added to each well of the assay plate (reagent is light sensitive). Each assay plate was covered with aluminum foil to protect it from light and shaken for 30 min at room temperature. Each assay plate was read in a Packard TopCount NXT instrument.
# The data from the TopCount instrument was transferred to GraphPad Prism software. The software performed a non-linear regression (log(agonist) vs response-Variable slope (four parameter)). EC50 values were calculated by the software and reported in pM.
# T1 sequence (P47871 26-477): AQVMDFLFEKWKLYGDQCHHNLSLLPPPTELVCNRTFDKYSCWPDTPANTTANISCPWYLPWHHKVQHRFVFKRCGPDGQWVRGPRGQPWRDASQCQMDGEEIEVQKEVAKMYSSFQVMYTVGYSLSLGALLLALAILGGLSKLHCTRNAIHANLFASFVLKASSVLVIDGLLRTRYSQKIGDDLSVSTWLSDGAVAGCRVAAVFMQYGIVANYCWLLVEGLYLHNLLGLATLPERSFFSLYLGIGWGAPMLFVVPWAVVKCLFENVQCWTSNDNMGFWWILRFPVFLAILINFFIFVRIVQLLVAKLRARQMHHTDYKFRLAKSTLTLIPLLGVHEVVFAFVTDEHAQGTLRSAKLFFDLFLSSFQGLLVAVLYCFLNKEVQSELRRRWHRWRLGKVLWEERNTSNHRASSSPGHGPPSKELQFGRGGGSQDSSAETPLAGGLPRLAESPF
smiles,measurement,setting,value
"CC(=O)N[C@@H](CCC(=O)N[C@@H](CCC(=O)N[C@@H](CCC(=O)N[C@@H](CCC(=O)NCCCC[C@H](NC(=O)[C@@H](NC(=O)[C@H](CO)NC(=O)[C@H](CC(C)C)NC(=O)[C@H](CC(C)C)NC(=O)[C@H](Cc1c[nH]c2ccccc12)NC(=O)[C@H](CCC(N)=O)NC(=O)[C@@H](NC(=O)[C@H](Cc1ccccc1)NC(=O)[C@H](CCC(=O)O)NC(=O)[C@H](CCC(N)=O)NC(=O)[C@H](C)NC(=O)[C@H](CCCNC(=N)N)NC(=O)[C@H](CCCNC(=N)N)NC(=O)[C@H](CO)NC(=O)[C@H](CCC(=O)O)NC(=O)[C@H](CC(C)C)NC(=O)[C@H](Cc1ccc(O)cc1)NC(=O)[C@H](CCCCN)NC(=O)[C@H](CO)NC(=O)[C@H](Cc1ccc(O)cc1)NC(=O)[C@H](CC(=O)O)NC(=O)[C@H](CO)NC(=O)[C@@H](NC(=O)[C@H](Cc1ccccc1)NC(=O)[C@@H](NC(=O)CNC(=O)[C@H](Cc1c[nH]cn1)NC(=O)[C@H](CO)NC(=O)CCc1c[nH]cn1)[C@@H](C)O)[C@@H](C)O)C(C)C)[C@@H](C)O)C(=O)O)C(=O)O)C(=O)O)C(=O)O)C(=O)O [Example 16, N^α([Imp1, His3, Glu15, Glu21, Leu27, Ser28]-Glucagonyl)-N{Epsilon}[(4S)-4-[[(4S)-4-[[(4S)-4-[[(4S)-4-acetamido-4-carboxybutanoyl]amino]-4-carboxybutanoyl]amino]-4-carboxybutanoyl]amino]-4-carboxybutanoyl]Lys] (Desaminohistidyl-SHGTFTSDYSKYLESRRAQEFVQWLLSTK([γGlu-γGlu-γGlu-γGlu-Ac])-OH)",recovery at 250 μM,physchem,61%
same,EC50,human glucagon receptor,4 pM
"CC(=O)N[C@@H](CCC(=O)N[C@@H](CCC(=O)N[C@@H](CCC(=O)NCCCC[C@H](NC(=O)[C@@H](NC(=O)[C@H](Cc1ccccc1)NC(=O)[C@H](CCC(=O)O)NC(=O)[C@H](CCC(N)=O)NC(=O)[C@H](C)NC(=O)[C@H](CCCNC(=N)N)NC(=O)[C@H](CCCNC(=N)N)NC(=O)[C@H](CO)NC(=O)[C@H](CCC(=O)O)NC(=O)[C@H](CC(C)C)NC(=O)[C@H](Cc1ccc(O)cc1)NC(=O)[C@H](CCCCN)NC(=O)[C@H](CO)NC(=O)[C@H](Cc1ccc(O)cc1)NC(=O)[C@H](CC(=O)O)NC(=O)[C@H](CO)NC(=O)[C@@H](NC(=O)[C@H](Cc1ccccc1)NC(=O)[C@@H](NC(=O)CNC(=O)[C@H](Cc1c[nH]cn1)NC(=O)[C@H](CO)NC(=O)CCc1c[nH]cn1)[C@@H](C)O)[C@@H](C)O)C(C)C)C(=O)N[C@@H](Cc1c[nH]c2ccccc12)C(=O)N[C@@H](CC(C)C)C(=O)N[C@@H](CC(C)C)C(=O)N[C@@H](CO)C(=O)N[C@H](C(=O)O)[C@@H](C)O)C(=O)O)C(=O)O)C(=O)O [Example 18, N^ϵ24-[(4S)-4-[[(4S)-4-[[(4S)-4-acetamido-4-carboxybutanoyl]amino]-4-carboxybutanoyl]amino]-4-carboxybutanoyl]-[Imp1, His3, Glu15, Glu21, Lys24, Leu27, Ser28]-Glucagon] (Desaminohistidyl-SHGTFTSDYSKYLESRRAQEFVK([γGlu-γGlu-γGlu-Ac])WLLST-OH)",recovery at 250 μM,physchem,100%
same,EC50,human glucagon receptor,6 pM
"CC(=O)N[C@@H](CCC(=O)N[C@@H](CCC(=O)N[C@@H](CCC(=O)N[C@@H](CCC(=O)N[C@@H](CCC(=O)NCCCC[C@H](NC(=O)[C@@H](NC(=O)[C@H](Cc1ccccc1)NC(=O)[C@H](CCC(=O)O)NC(=O)[C@H](CCC(N)=O)NC(=O)[C@H](C)NC(=O)[C@H](CCCNC(=N)N)NC(=O)[C@H](CCCNC(=N)N)NC(=O)[C@H](CO)NC(=O)[C@H](CCC(=O)O)NC(=O)[C@H](CC(C)C)NC(=O)[C@H](Cc1ccc(O)cc1)NC(=O)[C@H](CCCCN)NC(=O)[C@H](CO)NC(=O)[C@H](Cc1ccc(O)cc1)NC(=O)[C@H](CC(=O)O)NC(=O)[C@H](CO)NC(=O)[C@@H](NC(=O)[C@H](Cc1ccccc1)NC(=O)[C@@H](NC(=O)CNC(=O)[C@H](Cc1c[nH]cn1)NC(=O)[C@H](CO)NC(=O)CCc1c[nH]cn1)[C@@H](C)O)[C@@H](C)O)C(C)C)C(=O)N[C@@H](Cc1c[nH]c2ccccc12)C(=O)N[C@@H](CC(C)C)C(=O)N[C@@H](CC(C)C)C(=O)N[C@@H](CO)C(=O)N[C@H](C(=O)O)[C@@H](C)O)C(=O)O)C(=O)O)C(=O)O)C(=O)O)C(=O)O [Example 19, N^ϵ24-[(4S)-4-[[(4S)-4-[[(4S)-4-[[(4S)-4-[[(4S)-4-acetamido-4-carboxybutanoyl]amino]-4-carboxybutanoyl]amino]-4-carboxybutanoyl]amino]-4-carboxybutanoyl]amino]-4-carboxybutanoyl]-[Imp1, His3, Glu15, Glu21, Lys24, Leu27, Ser28]-Glucagon] (Desaminohistidyl-SHGTFTSDYSKYLESRRAQEFVK([γGlu-γGlu-γGlu-γGlu-γGlu-Ac])WLLST-OH)",recovery at 250 μM,physchem,104%
same,EC50,human glucagon receptor,6 pM
"CC(=O)N[C@@H](CCC(=O)N[C@@H](CCC(=O)N[C@@H](CCC(=O)N[C@@H](CCC(=O)NCCCC[C@H](NC(=O)[C@@H](NC(=O)[C@H](Cc1ccccc1)NC(=O)[C@H](CC(=O)O)NC(=O)[C@H](CCC(N)=O)NC(=O)[C@H](C)NC(=O)[C@H](CCCNC(=N)N)NC(=O)[C@H](CCCNC(=N)N)NC(=O)[C@H](C)NC(=O)[C@H](CC(=O)O)NC(=O)[C@H](CC(C)C)NC(=O)[C@H](Cc1ccc(O)cc1)NC(=O)[C@H](CCCCN)NC(=O)[C@H](CO)NC(=O)[C@H](Cc1ccc(O)cc1)NC(=O)[C@H](CC(=O)O)NC(=O)[C@H](CO)NC(=O)[C@@H](NC(=O)[C@H](Cc1ccccc1)NC(=O)[C@@H](NC(=O)CNC(=O)[C@H](Cc1c[nH]cn1)NC(=O)[C@H](CO)NC(=O)CCc1c[nH]cn1)[C@@H](C)O)[C@@H](C)O)C(C)C)C(=O)N[C@@H](Cc1c[nH]c2ccccc12)C(=O)N[C@@H](CC(C)C)C(=O)N[C@@H](CC(C)C)C(=O)N[C@@H](CO)C(=O)N[C@H](C(=O)O)[C@@H](C)O)C(=O)O)C(=O)O)C(=O)O)C(=O)O [Example 20, N^ϵ24-[(4S)-4-[[(4S)-4-[[(4S)-4-[[(4S)-4-acetamido-4-carboxybutanoyl]amino]-4-carboxybutanoyl]amino]-4-carboxybutanoyl]amino]-4-carboxybutanoyl]-[Imp1, His3, Ala16, Lys24, Leu27, Ser28]-Glucagon] (Desaminohistidyl-SHGTFTSDYSKYLDARRAQDFVK([γGlu-γGlu-γGlu-γGlu-Ac])WLLST-OH)",recovery at 250 μM,physchem,105%
same,EC50,human glucagon receptor,4 pM
"CC(=O)N[C@@H](CCC(=O)N[C@@H](CCC(=O)N[C@@H](CCC(=O)N[C@@H](CCC(=O)NCCCC[C@H](NC(=O)[C@@H](NC(=O)[C@H](Cc1ccccc1)NC(=O)[C@H](CC(=O)O)NC(=O)[C@H](CCC(N)=O)NC(=O)[C@H](C)NC(=O)[C@H](CCCNC(=N)N)NC(=O)[C@H](CCCNC(=N)N)NC(=O)C(C)(C)NC(=O)[C@H](CC(=O)O)NC(=O)[C@H](CC(C)C)NC(=O)[C@H](Cc1ccc(O)cc1)NC(=O)[C@H](CCCCN)NC(=O)[C@H](CO)NC(=O)[C@H](Cc1ccc(O)cc1)NC(=O)[C@H](CC(=O)O)NC(=O)[C@H](CO)NC(=O)[C@@H](NC(=O)[C@H](Cc1ccccc1)NC(=O)[C@@H](NC(=O)CNC(=O)[C@H](Cc1c[nH]cn1)NC(=O)[C@H](CO)NC(=O)CCc1c[nH]cn1)[C@@H](C)O)[C@@H](C)O)C(C)C)C(=O)N[C@@H](Cc1c[nH]c2ccccc12)C(=O)N[C@@H](CC(C)C)C(=O)N[C@@H](CC(C)C)C(=O)N[C@@H](CO)C(=O)N[C@H](C(=O)O)[C@@H](C)O)C(=O)O)C(=O)O)C(=O)O)C(=O)O [Example 21, N^ϵ24-[(4S)-4-[[(4S)-4-[[(4S)-4-[[(4S)-4-acetamido-4-carboxybutanoyl]amino]-4-carboxybutanoyl]amino]-4-carboxybutanoyl]amino]-4-carboxybutanoyl]-[Imp1, His3, Aib16, Lys24, Leu27, Ser28]-Glucagon] (Desaminohistidyl-SHGTFTSDYSKYLD[Aib]RRAQDFVK([γGlu-γGlu-γGlu-γGlu-Ac])WLLST-OH)",recovery at 250 μM,physchem,104%
same,EC50,human glucagon receptor,2 pM
